# Reference: patent US9958434B2, “Fluorescent probe sensing tyrosine kinase and use thereof” (POSTECH ACADEMY-INDUSTRY FOUNDATION, priority 2013, dated 2018)
# Key:
# [1] = molecular target: T1, PDGFRa (Homo sapiens, UniProt P16234); test: Protein binding selectivity by change in fluorescence (fluorescence turn-on on binding)
# T1 construct: purchased Carna Biosciences
# Procedure: More particularly, to determine whether compound 1 selectively binds to a kinase enzyme, various proteins (including a kinase enzyme) were used to check a change in fluorescence. In this experiment, a buffer (100 mM HEPES buffer, pH 7.4) was used as the solvent, and a kinase commercially available from Carna Biosciences was used as the kinase enzyme. Here, each kinase enzyme was stored at −80° C. together with a solvent (50 mM Tris-HCl, 150 mM NaCl, 0.1% CHAPS, 1 mM DTT, and 10% Glycerol, pH 7.5) kindly provided by the manufacturer. […] A 96-well fluorescence assay plate (commercially available from SPL Life Science) was used as a plate used upon measurement of fluorescence, and a VCITOR 3 multilabel counter (commercially available from Perkin Elmer-Wellesley) was used as a measuring machine. A 355 nm-thick filter was used to produce excitation wavelengths of the measuring machine, and a 535 nm-thick filter was used to produce emission wavelengths of the measuring machine. Stirring was performed at 37° C. for 24 hours at a rotary speed of 170 rpm using an NB-205Q model (commercially available from N-BIOTEK). Compound 1 was dissolved in a DMSO solution (1 mM, 10 mM, 50 mM, 100 mM, and 200 mM) to be used, and DMSO in every tube was adjusted to be substantially the same content (less than 1%) under the finally used solvent conditions. Mg^2+ and ATP were used at a content of 1 mM.
# In the graph shown in FIG. 2, the horizontal axis represents kinds of proteins, and the vertical axis represents fluorescence intensities of the proteins. Each experimental value was basically an average value of three experiments conducted through the same course for preparing for experiments, a concentration of compound 1 used was 100 μM, and an amount of each protein was 0.2 μg/mL. The kinds of proteins indicated on the horizontal axis are as follows.
# More particularly, Model WUV-L10 commercially available from WiseUV was used as a UV excitation device, and the solvent and experiment conditions used were substantially the same as in Example 3. Here, a fluorescence emission observed in the UV excitation device (UV excitation at 350 nm to 430 nm) was determined by taking an image.
# More particularly, compound 1 (100 μM) and the kinase enzyme, Src or PDGFRa, were used at contents of 0.2 μg and 1 μg, respectively, and the solvent and experiment conditions used were substantially the same as in Example 3.
# More particularly, the solvent and experiment conditions used were substantially the same as in Example 3. In the graph shown in FIG. 7, A represents a fluorescence intensity when compound 1 (100 μM) is used alone, B represents a fluorescence intensity when Mg (1 mM) is added to compound 1, C represents a fluorescence intensity when ATP (1 mM) is added to compound 1, and D represents a fluorescence intensity when compound 1 is treated with Mg (1 mM) and ATP (1 mM) at the same time.
# More particularly, a concentration of the kinase enzyme was set to 0.2 μg/mL, fluorescence intensity according to the concentration of compound 1 was measured in the presence of Mg (1 mM) and ATP (1 mM), and the solvent conditions and other conditions were substantially the same as in Example 3.
# [2] = system: mouse cutaneous melanoma cells (B16F10); test: Cytotoxicity, cell counting kit-8 (CCK-8); format: cell-based; conditions: B16F10, 0 to 200 μM, incubated for an hour
# Procedure: The present inventors confirmed the cytotoxicity of compound 1 in mouse cutaneous melanoma cells (B16F10) using a cell counting kit-8 (CCK-8) method (Dojindo laboratories, Kumamoto, Japan).
# More particularly, the B16F10 cells were incubated for 24 hours (at 37° C.) at a density of 5000 cells/well in a 96-well plate under a 5% CO2 atmosphere. The cells were treated with an increasing concentration of compound 1 (10 μM, 30 μM, 50 μM, 100 μM, and 200 μM) in a DMSO solvent, and then incubated for an hour. Thereafter, the cells were treated with 10 μL of a CCK-8 solution, and then incubated for 2 hours.
# T1 sequence (P16234 24-1089): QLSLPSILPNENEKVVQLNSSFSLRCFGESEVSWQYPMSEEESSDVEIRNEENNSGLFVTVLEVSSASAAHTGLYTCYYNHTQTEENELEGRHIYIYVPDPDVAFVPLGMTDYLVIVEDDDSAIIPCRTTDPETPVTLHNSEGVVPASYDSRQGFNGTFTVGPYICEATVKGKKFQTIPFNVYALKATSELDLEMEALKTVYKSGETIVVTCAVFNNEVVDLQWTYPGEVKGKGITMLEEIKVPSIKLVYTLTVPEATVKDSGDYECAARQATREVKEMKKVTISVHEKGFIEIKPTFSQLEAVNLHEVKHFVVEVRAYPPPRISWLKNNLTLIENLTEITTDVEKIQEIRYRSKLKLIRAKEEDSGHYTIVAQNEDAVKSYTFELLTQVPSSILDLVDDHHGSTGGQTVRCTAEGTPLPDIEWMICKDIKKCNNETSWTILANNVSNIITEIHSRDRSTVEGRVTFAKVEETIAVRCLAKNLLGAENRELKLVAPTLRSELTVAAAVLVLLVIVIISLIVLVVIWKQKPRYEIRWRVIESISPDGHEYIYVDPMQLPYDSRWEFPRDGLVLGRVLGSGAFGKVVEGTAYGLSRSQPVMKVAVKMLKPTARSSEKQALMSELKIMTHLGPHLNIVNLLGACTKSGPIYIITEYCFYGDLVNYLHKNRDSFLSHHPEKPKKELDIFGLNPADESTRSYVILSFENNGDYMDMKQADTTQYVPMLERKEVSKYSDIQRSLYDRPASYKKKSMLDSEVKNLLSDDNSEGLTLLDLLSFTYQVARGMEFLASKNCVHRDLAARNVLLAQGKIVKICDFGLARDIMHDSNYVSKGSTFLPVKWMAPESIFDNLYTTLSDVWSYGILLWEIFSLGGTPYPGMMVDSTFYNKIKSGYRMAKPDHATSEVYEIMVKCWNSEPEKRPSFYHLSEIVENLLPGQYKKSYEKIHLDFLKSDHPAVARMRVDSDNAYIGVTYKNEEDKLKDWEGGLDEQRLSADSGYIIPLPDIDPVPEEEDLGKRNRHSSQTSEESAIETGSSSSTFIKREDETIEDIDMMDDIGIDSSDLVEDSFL
smiles,measurement,setting,value
"CN(C)c1ccc2cc(C=O)c(O)cc2c1 [compound 1, 6-(dimethylamino)-3-hydroxyl-2-naphthaldehyde]",fluorescence under UV excitation (image),"[1]; PDGFRa with ATP and Mg, 37° C. 24 hours, UV 350 nm to 430 nm, compared with compound 1 alone",strong fluorescence
same,fluorescence intensity,"[1]; compound 1 100 μM, protein 0.2 μg/mL, with Mg and ATP (1 mM), 37° C. 24 hours",highest fluorescence intensity
same,"fluorescence intensity, effect of cofactors","[1]; compound 1 100 μM, case D: Mg (1 mM) and ATP (1 mM) together",highest increase in fluorescence intensity
same,fluorescence signal intensity according to concentration of kinase enzyme,"[1]; compound 1 100 μM, enzyme 0.2 μg and 1 μg",stronger fluorescence signal intensity at higher concentrations
same,increase in fluorescence intensity,"[1]; compound 1 at approximately 50 μM, kinase 0.2 μg/mL, Mg 1 mM, ATP 1 mM",approximately 50%
same,cell viability,[2],more than 90%
